Experimental data: US5587479A, “Basic derivatives of glutamic acid and aspartic acid as gastrin or cholecystokinin antagonists” (priority 1992, dated 1996)
Values after ≈ are worked out from the molar mass of the structure shown. Where two headings read alike, the source gives them in different places.

How the values were obtained:
[1] = target: T1, cholecystokinin receptors of the pancreatic cells of the rat (CCK-A) (Rattus norvegicus, UniProt P30551); test: Inhibition of the binding of [125-I]-[Bolton-Hunter]-CCK-8 to rat pancreatic cells (anti-CCK-A); conditions: for IC50: 30 minutes at 37° C., read-out: IC50, inhibition of the binding of (125-I)(B-H)-CCK-8 to the pancreatic cells of the rat
T1 construct: The pancreatic cells of the rat were prepared as described by Makovec et al; from tissue; host or cells: rat pancreatic cells
T1 sequence (P30551 1-444): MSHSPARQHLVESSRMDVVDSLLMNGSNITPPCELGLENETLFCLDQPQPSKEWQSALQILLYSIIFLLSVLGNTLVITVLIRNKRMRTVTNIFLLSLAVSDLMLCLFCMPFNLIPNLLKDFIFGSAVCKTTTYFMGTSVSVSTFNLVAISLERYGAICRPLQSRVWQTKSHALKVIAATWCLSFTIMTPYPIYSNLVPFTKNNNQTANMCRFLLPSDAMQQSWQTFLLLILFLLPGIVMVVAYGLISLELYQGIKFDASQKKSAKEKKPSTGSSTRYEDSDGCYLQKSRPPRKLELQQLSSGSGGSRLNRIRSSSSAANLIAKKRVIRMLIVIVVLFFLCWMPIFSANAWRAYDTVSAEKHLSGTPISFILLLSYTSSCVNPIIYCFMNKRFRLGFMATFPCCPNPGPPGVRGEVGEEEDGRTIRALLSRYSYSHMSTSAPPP
Method: The pancreatic cells of the rat were prepared as described by Makovec et al. (reference cited) so as to produce about 5×10^6 cells/mi. The cells were then incubated together with the radioactive tracer and the compounds under test for 30 minutes at 37° C.
After the supernatant liquid had been discarded, the radioactivity associated with the pellet was determined with a gamma counter (80% efficiency).

[2] = target: T2, central CCK-B receptors (guinea pig cortical membrane) (Cavia porcellus, UniProt H0VZC5); test: Inhibition of binding of (3-H)[N-methyl-N-leucine]CCK-8 to guinea pig cortical membranes (anti-CCK-B); conditions: for IC50: IC50, inhibition of binding of (3-H)[N-methyl-N-leucine]CCK-8 to the guinea pig cortical membrane, 150 minutes at 25° C.
T2 construct: Cerebral cortices of white male guinea pigs were therefore used; from tissue; host or cells: guinea pig cerebral cortex membranes
T2 sequence (H0VZC5 1-426): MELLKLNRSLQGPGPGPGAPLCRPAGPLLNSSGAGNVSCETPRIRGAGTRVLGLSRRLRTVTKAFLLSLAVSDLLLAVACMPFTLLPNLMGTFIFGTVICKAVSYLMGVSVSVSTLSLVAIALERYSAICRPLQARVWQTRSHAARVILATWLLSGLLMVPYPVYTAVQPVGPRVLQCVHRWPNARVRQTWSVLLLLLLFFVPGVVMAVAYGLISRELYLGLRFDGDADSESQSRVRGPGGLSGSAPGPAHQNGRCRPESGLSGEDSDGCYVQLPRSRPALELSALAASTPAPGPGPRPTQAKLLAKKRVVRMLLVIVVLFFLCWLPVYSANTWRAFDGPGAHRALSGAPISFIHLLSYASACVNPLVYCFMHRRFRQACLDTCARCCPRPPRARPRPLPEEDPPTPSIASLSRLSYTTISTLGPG
Method: Cerebral cortices of white male guinea pigs were therefore used, according to the method mentioned above, so as to obtain a membrane content/ml corresponding to about 300 mcg of proteins/mi. The membranes were incubated together with the radioactive tracer and the compounds under test for 150 minutes at 25° C. After the supernatant liquid had been discarded, the radioactivity associated with the pellet was determined with a liquid scintillator.

CCK-B receptors = conditions: guinea-pig; cited from earlier work
[3] = tested on: acid secretion induced by pentagastrin; test: Activity against gastric secretion stimulated with pentagastrin in the anaesthetized rat; assay type: in vivo; conditions: for ED50: iv, anaesthetized rat, pentagastrin 30 mcg/kg/h, I.V. bolus, read-out: Antagonistic activity (ID50) towards acid secretion induced by pentagastrin
Method: The investigation of the activity against gastric secretion performed by the compounds of the invention by means of an antigastrin mechanism was carried out in vivo in anaesthetized rats with the use of male animals weighing about 200 g. Gastric secretion was stimulated with pentagastrin and the method of K. S. Lai [Gut 5, (1964), 327-341] was used, slightly modified.
After tracheotomy, the oesophagus and duodenum were cannulated. Perfusion was carried out with a tepid solution (37° C.) of 0.25 mM NaOH which was passed through the stomach by means of a peristaltic pump at a constant flow rate of 1 ml/minute. After stabilization for 20 minutes, the stimulant, dissolved in a physiological solution, was perfused for 120 minutes at a dose of 30 mcg/kg/h in a volume of 0.95 ml/hour. After perfusion for 60 minutes (the basal simulation), the product under test was administered intravenously (I.V.) as a bolus and the perfusion of the stimulant was continued for a further 60 minutes. The acid secretion was recorded continuously as a function of time.
The activity of the product was evaluated as the percentage reduction in the secreted acidity after the administration of the product compared with the basal acidity measured during the first 60 minutes of collection in the presence of pentagastrin alone.

guinea-pig ureters = test: Antispastic activity in vitro: spontaneous motility of guinea-pig ureters; conditions: Cavia porcellus, five minutes contact, 37° C.
From the text: The isotonic contractions were detected by means of a force transducer and recorded. […] A given concentration of the product under test was then introduced into the bath and left in contact with the prepared specimen for five minutes, after which the ureter was washed until its own spontaneous activity was re-established.

mouse = test: Anxiolytic activity in the mouse, Black and White Box test; assay type: in vivo; conditions: for TOTAL MOV.: five minutes
Method: In order to confirm the hypothesis that the potent activity of some of the compounds of the invention against central CCK-B may be correlated with a possible anxiolytic activity, this potential activity was evaluated in the mouse with the use of the "Black and White Box test". This experimental model, which was carried out according to Costall et al. [Pharm. Biochem. Behav. 32 (1989), 777-785] used a box with dimensions of 45×21×21 (h) cm. divided into two compartments which communicated with each other by means of a 13×5 cm hole. The smaller compartment (1/3 of the total area) had black walls, whereas the larger had transparent walls and was illuminated by a lamp which was placed 20 cm above the box and supplied light at 20 W. Under the floor was an activity meter which registered the movements performed by the animal in the individual compartments. The experiment was started by placing the animal in the centre of the illuminated box; as well at its movements, the time which the animal spent in the dark and in the light and the number of times it moved between the 2 compartments were recorded for five minutes. In general, a control animal tended preferably to stay in the dark compartment where it felt better protected from an unusual enviromental situation which put it in a state of anxiety. In this experimental model ( see the reference cited above), a compound having anxiolytic activity decreased the % of movements into the dark in comparison with the total movements, increased the movements between the two light-dark compartments, and increased the % of the total time time spent in the light. The results obtained are given in Table 5 below in which the activities obtained with the compound 1 (the rectus series ) and its enantiomer 2 (sinister) tested in comparison with diazepam and the CCK-B antagonist L365-260.

[4] = force of the contractions, read-out: IC50 (force), inhibition of the spontaneous motility of guinea-pig ureters in vitro
[5] = frequency of the contractions, read-out: IC50 (frequency), inhibition of the spontaneous motility of guinea-pig ureters in vitro

CCCCCN(CCCCC)C(=O)[C@@H](CCC(=O)O)NC(=O)c1ccc(Cl)c(Cl)c1 [R-lorglumide, reference compound]
times more active than the compound 59 (CCK-A binding) ([1]; rat pancreatic cells): about 25 times | IC50 [2]: 9200 nM

non-sulphated [3-H][N-methyl-N-leucine]CCK-8
affinity for the receptors of the cortex (CCK-B), times greater than for those of the pancreas (CCK-A) (CCK-B receptors): about 4000 times

CCC(C)(CC)CCNC(=O)C(CC(=O)NCCN1CCOCC1)NC(=O)c1cccc(Cl)c1 (stereo not drawn) [Compound 68]
ED50 [3]: 31 mg/kg

CCCCCN(CCCCC)C(=O)[C@@H](CCC(=O)NCCN1CCOCC1)NC(=O)c1ccc2ccccc2c1 [Compound 61]
IC50 (guinea-pig ureters; [4]): 32 µg/mL (≈ 57.9 µM) | IC50 (guinea-pig ureters; [5]): 100 µg/mL (≈ 181 µM) | IC50 [1]: 2800 nM | IC50 [2]: 2900 nM

O=C(O)CC[C@@H](NC(=O)c1cc(Cl)cc(Cl)c1)C(=O)N1CCC2(CCCC2)CC1 [CR 2194, reference compound]
ED50 [3]: 11 mg/kg | IC50 [2]: 2400 nM

CN1CCN(C(=O)CC[C@@H](NC(=O)c2cc(Cl)cc(Cl)c2)C(=O)N2CCC3(CCCC3)CC2)CC1 [Compound 1]
LIGHT TIME (%) TOTAL TIME (mouse; 0.01 mg/kg IP): 32.3% | LIGHT TIME (%) TOTAL TIME: % EFF.VS CONTROL (mouse; 0.01 mg/kg IP): 17% | LIGHT-DARK MOVEMENTS (mouse; 0.01 mg/kg IP): 13.2 | LIGHT-DARK MOVEMENTS: % EFF. VS CONTROL (mouse; 0.01 mg/kg IP): 3% | MOV. DARK (%) TOTAL MOV. (mouse; 0.01 mg/kg IP): 50% | MOV. DARK (%) TOTAL MOV.: % EFF. VS CONTROL (mouse; 0.01 mg/kg IP): 0% | TOTAL MOV. (mouse; 0.01 mg/kg IP): 478 | LIGHT TIME (%) TOTAL TIME (mouse; 0.1 mg/kg IP): 35.4% | LIGHT TIME (%) TOTAL TIME: % EFF.VS CONTROL (mouse; 0.1 mg/kg IP): 28% | LIGHT-DARK MOVEMENTS (mouse; 0.1 mg/kg IP): 15.0 | LIGHT-DARK MOVEMENTS: % EFF. VS CONTROL (mouse; 0.1 mg/kg IP): 17% | MOV. DARK (%) TOTAL MOV. (mouse; 0.1 mg/kg IP): 47% | MOV. DARK (%) TOTAL MOV.: % EFF. VS CONTROL (mouse; 0.1 mg/kg IP): -5% | TOTAL MOV. (mouse; 0.1 mg/kg IP): 461 | LIGHT TIME (%) TOTAL TIME (mouse; 1 mg/kg IP): 30.5% | LIGHT TIME (%) TOTAL TIME: % EFF.VS CONTROL (mouse; 1 mg/kg IP): 10% | LIGHT-DARK MOVEMENTS (mouse; 1 mg/kg IP): 12.9 | LIGHT-DARK MOVEMENTS: % EFF. VS CONTROL (mouse; 1 mg/kg IP): 0% | MOV. DARK (%) TOTAL MOV. (mouse; 1 mg/kg IP): 45% | MOV. DARK (%) TOTAL MOV.: % EFF. VS CONTROL (mouse; 1 mg/kg IP): -9% | TOTAL MOV. (mouse; 1 mg/kg IP): 471 | anxiolytic activity in the Black and White Box test (in words) (mouse; IP): active for all the parameters tested | dose at which the compound is most active (mouse; bell-shaped curve): 0.1 mg/kg (I.P.) | ED50 [3]: 9 mg/kg | activity times higher than that of its S enantiomer, compound 2 ([3]; rat, pentagastrin-induced acid secretion): about three | times more active than CR 2194, calculated on a molar basis ([3]; rat, pentagastrin-induced acid secretion, molar basis): about 1.5 times | times more active than CR 2194 ([3]; rat, pentagastrin-induced acid secretion, weight basis): about 1.2 times | IC50 (guinea-pig ureters; [4]): 23 µg/mL (≈ 43.9 µM) | IC50 (guinea-pig ureters; [5]): 29 µg/mL (≈ 55.4 µM) | activity relative to its acidic parent compound CR 2194 (CCK-A binding) ([1]; rat pancreatic cells): about twice | IC50 [2]: 700 nM | times less active than pentagastrin (CCK-B binding) ([2]; guinea-pig cortical membranes): about 200 times | times more potent than the CCK-A antagonist R-lorglumide (CCK-B binding) ([2]; guinea-pig cortical membranes): about 10 times | times more potent than the gastrin antagonist CR 2194 (CCK-B binding) ([2]; guinea-pig cortical membranes): about 3 times

CCCCCN(CCCCC)C(=O)[C@@H](CCC(=O)NCCN1CCOCC1)NC(=O)c1cnc2ccccc2c1 [Compound 59]
IC50 [1]: 1200 nM
